Reference: patent US11130132B2, “Microfluidic neutrophil assays and systems for disease detection” (The General Hospital Corporation, priority 2016, dated 2021)

System: neutrophils in whole blood
Experiment: blood-spiking with immune-modulators: spontaneous neutrophil motility in whole blood in the microfluidic device
Type: cell-based, human
Conditions: 37° C. 30 min before loading
Description: Prior to the addition of a blood sample, devices were primed with IMDM containing 10% FBS and 1% Fibronectin (from human plasma, Sigma) by pipetting 50 μl into the sample loading chamber and around each device, such that a dome of liquid formed on top, and the outer edge of the device in contact with the coverslip was surrounded. The devices were placed under a vacuum for at least 10 minutes, and then removed and allowed to re-pressurize and equilibrate for at least 15 minutes to remove bubbles.
Whole blood samples to be loaded in the device were diluted 1:1 in IMDM with 20% FBS and stained with Hoechst 33342 dye at 32 μM for 15 minutes prior to loading. A small droplet of 0.5 μL of stained blood was then pipetted into the center of the device using a gel-loading tip. The blood droplet is pipetted into the central chamber and time-lapse imaging of the mazes was then used to measure neutrophil behavior over a period of 4 hours.
Cell motility was imaged at 10× magnification using a fully automated fluorescent Nikon TiE inverted wide field microscope with a biochamber heated to 37° C. with 5% CO2. Each microfluidic device included 8 imaging fields, each containing one […]. Each field was imaged every 2 minutes over the course of 4 hours to allow accurate tracking of cell motility.
Automated cell tracking was performed using ImageCV, TrackPy, and SciKit-Learn packages in Python. Files were converted to standard AVI format using Nikon Elements or ImageJ. Initial processing was performed to allow brightfield tracking and included removing the background. Cell tracking was performed automatically from brightfield images for most of the time-lapse sequences. Cells were tracked by size, velocity, and directionality. These tracks were written to individual CSV files for each imaging field. The specific variables for each track included: track number, video frame, cell diameter, x position, y position, distance, and velocity. Cell motility pattern identification and definitions are detailed in Table 2. Figures were prepared using Illustrator CS5 Version 15.0.0 (Adobe Systems).
For plasma-swapping experiments, 1 mL of whole blood was centrifuged at 200 g for 10 minutes to pellet cells. The platelet-rich plasma supernatants were then drawn from the tubes and transferred into fresh tubes. Platelets were then pelleted at 1900 g for 10 minutes and the plasma fraction drawn into fresh tubes. Cell pellets were then re-suspended in the appropriate exchanged plasma and an aliquot loaded into the device. For blood-spiking experiments, immune-modulators were added to the media at 2× the target dose prior to mixing 1:1 with whole blood. Once mixed, spiked blood samples were incubated at 37° C. for 30 min prior to loading.

[1] = whole blood spiked at 0.1 ng/mL
[2] = whole blood spiked at 1.0 ng/mL
[3] = whole blood spiked at 0.5 ng/mL
[4] = whole blood spiked at 0.3 ng/mL
[5] = whole blood spiked at 1.8 ng/mL

Molecule | Oscillations (O) [1] | Pausing [1] | Spontaneously migrating cells (N) [1] | Oscillations (O) [2] | Pausing [2] | Spontaneously migrating cells (N) [2] | Oscillations (O) [3] | Pausing [3] | Spontaneously migrating cells (N) [3] | Oscillations (O) [4] | Pausing [4] | Spontaneously migrating cells (N) [4] | Oscillations (O) [5] | Pausing [5] | Spontaneously migrating cells (N) [5] | Spontaneously migrating cells (N) (whole blood spiked at 2.5 ng/mL)
IL1-β: immune-modulator previously reported to be elevated in septic blood, spiked into whole blood | 1.4 ± 1.5 | 2.4 ± 2.8 | 3.8 ± 3.2 | 1.0 | 1.0 | 0.3 ± 0.1 | – | – | – | – | – | – | – | – | – | –
TNF-α | 1.7 ± 3.4 | 4.8 ± 8.8 | 7.2 ± 13.9 | 0.7 ± 1.2 | 1.3 ± 0.6 | 2.7 ± 1.2 | 1.3 ± 1.2 | 15.7 ± 14.2 | 25.3 ± 26.1 | – | – | – | – | – | – | –
G-SCF: immune-modulator previously reported to be elevated in septic blood, spiked into whole blood (protein, UniProt P09919 31-207, looked up) Granulocyte …: TPLGPASSLPQSFLLKCLEQVRKIQGDGAALQEKLVSECATYKLCHPEELVLLGHSLGIPWAPLSSCPSQALQLAGCLSQLHSGLFLYQGLLQALEGISPELGPTLDTLQLDVADFATTIWQQMEELGMAPALQPTQGAMPAFASAFQRRAGGVLVASHLQSFLEVSYRVLRHLAQP | – | – | – | – | – | – | 0.3 ± 0.6 | 2.0 ± 1.7 | 2.3 ± 2.3 | 4.2 ± 9.7 | 4.7 ± 9.6 | 6.7 ± 13.6 | – | – | – | –
IFN-γ: immune-modulator previously reported to be elevated in septic blood, spiked into whole blood (protein, UniProt P01579 24-161, looked up) Interferon gamma: QDPYVKEAENLKKYFNAGHSDVADNGTLFLGILKNWKEESDRKIMQSQIVSFYFKLFKNFKDDQSIQKSVETIKEDMNVKFFNSNKKKRDDFEKLTNYSVTDLNVQRKAIHELIQVMAELSPAAKTGKRKRSQMLFRG | – | – | – | – | – | – | – | – | – | – | – | – | 4.8 ± 6.3 | 7.0 ± 6.9 | 10.8 ± 12.4 | 0 ± 0.0
